Test results: the NIST ThermoML archive (doi:10.1021/je900266h)
± gives the expanded uncertainty stated by the source.

How the values were obtained:
[1] = refractive index (Na D-line) (dimensionless); mn = molality of the nth substance listed, in mol/kg; details: 101 kPa, Liquid, Standard Abbe refractometry
[2] = refractive index (Na D-line) (dimensionless); details: 101.33 kPa, Liquid, Standard Abbe refractometry
[3] = refractive index (Na D-line) (dimensionless); wn = mass fraction of the nth substance listed; details: 101 kPa, Liquid, Standard Abbe refractometry, w2 = 0

O=S(=O)([O-])[O-].[Mg+2] [magnesium sulfate] + O
refractive index, [1]
Details	288.15 K	298.15 K	308.15 K	318.15 K
m1 = 0.2096	1.33858 ± 0.00041	1.33762 ± 0.00041	1.33629 ± 0.00041	1.33491 ± 0.00041
m1 = 0.3448	1.34163 ± 0.00041	1.34072 ± 0.00041	1.3393 ± 0.00041	1.33803 ± 0.00041
m1 = 0.5911	1.3471 ± 0.00041	1.34594 ± 0.00041	1.34463 ± 0.00041	1.34335 ± 0.00041
m1 = 0.7832	1.35115 ± 0.00041	1.35009 ± 0.00041	1.34872 ± 0.00041	1.34735 ± 0.00041
m1 = 0.9997	1.35558 ± 0.00041	1.35438 ± 0.00041	1.35295 ± 0.00041	1.3516 ± 0.00041
m1 = 1.19	1.35934 ± 0.00041	1.3581 ± 0.00042	1.35667 ± 0.00042	1.35532 ± 0.00041
m1 = 1.379	1.36292 ± 0.00042	1.36174 ± 0.00042	1.36037 ± 0.00042	1.35894 ± 0.00042
m1 = 1.621	1.3674 ± 0.00042	1.36613 ± 0.00042	1.36468 ± 0.00042	1.36342 ± 0.00042
m1 = 1.867	1.37176 ± 0.00042	1.37039 ± 0.00042	1.36899 ± 0.00042	1.3677 ± 0.00042
m1 = 2.12	1.376 ± 0.00042	1.37469 ± 0.00042	1.3732 ± 0.00042	1.37185 ± 0.00042
m1 = 2.36	1.37993 ± 0.00042	1.37853 ± 0.00042	1.37709 ± 0.00042	1.37586 ± 0.00042
m1 = 2.592	1.38344 ± 0.00042	1.38211 ± 0.00042	1.38069 ± 0.00042	1.37944 ± 0.00042
m1 = 2.859	–	1.38613 ± 0.00042	1.38461 ± 0.00042	1.38352 ± 0.00042
m1 = 3.087	–	1.38927 ± 0.00042	1.3878 ± 0.00042	1.38662 ± 0.00042
m1 = 3.347	–	–	1.39151 ± 0.00042	1.39026 ± 0.00042
m1 = 3.579	–	–	1.3945 ± 0.00042	1.39328 ± 0.00042
m1 = 3.807	–	–	–	1.39614 ± 0.00042
m1 = 3.998	–	–	–	1.39817 ± 0.00042

O [water]
[2]
Details	refractive index
288.15 K	1.33339 ± 0.00041
298.15 K	1.33248 ± 0.00041
308.15 K	1.33128 ± 0.00041
318.15 K	1.32979 ± 0.00041

O [water] + CCO
[3]
Details	refractive index
288.15 K	1.33339 ± 0.00041
298.15 K	1.33248 ± 0.00041
308.15 K	1.33128 ± 0.00041
318.15 K	1.32979 ± 0.00041

O [water] + O=S(=O)([O-])[O-].[Cu+2]
[1], m2 = 0
Details	refractive index
288.15 K	1.33339 ± 0.00041
298.15 K	1.33248 ± 0.00041
308.15 K	1.33128 ± 0.00041
318.15 K	1.32979 ± 0.00041

O [water] + O=S(=O)([O-])[O-].[Li+].[Li+]
[1], m2 = 0
Details	refractive index
288.15 K	1.33339 ± 0.00041
298.15 K	1.33248 ± 0.00041
308.15 K	1.33128 ± 0.00041
318.15 K	1.32979 ± 0.00041

O [water] + O=S(=O)([O-])[O-].[Mg+2]
[1], m2 = 0
Details	refractive index
288.15 K	1.33339 ± 0.00041
298.15 K	1.33248 ± 0.00041
308.15 K	1.33128 ± 0.00041
318.15 K	1.32979 ± 0.00041
